Laboratory results taken from US10052320B2, “Substituted quinoxalines as FGFR kinase inhibitors” (ASTEX THERAPEUTICS LIMITED, priority 2011, dated 2018).
Where two headings read alike, the source gives them in different places.

Experiments:
FGFR2 (h) = FGFR2 (h) (Homo sapiens, UniProt P21802); test: FGFR2 (enzymatic assay), TR-FRET; format: biochemical; conditions: read-out: FGFR 2 pIC50 (converted)
Description: In a final reaction volume of 30 μL, FGFR2 (h) (150 ng/ml) was incubated with 50 mM HEPES pH 7.5, 6 mM MnCl2, 1 mM DTT, 0.1 mM Na3VO4, 0.01% Triton-X-100, 500 nM Btn-Flt3 and 0.4 μM ATP in the presence of compound (1% DMSO final). […] Time-Resolved Fluorescence Resonance Energy Transfer (TR-FRET) signal (ex340 nm. Em 620 nm, em 655 nm) was measured afterwards and results are expressed in (Relative Fluorescence Units).

FGFR3 (h) = FGFR3 (h) (Homo sapiens, UniProt P22607); test: FGFR3 (enzymatic assay), TR-FRET; format: biochemical; conditions: read-out: FGFR 3 pIC50 (converted)
Sequence of FGFR3 (h) (P22607 23-806): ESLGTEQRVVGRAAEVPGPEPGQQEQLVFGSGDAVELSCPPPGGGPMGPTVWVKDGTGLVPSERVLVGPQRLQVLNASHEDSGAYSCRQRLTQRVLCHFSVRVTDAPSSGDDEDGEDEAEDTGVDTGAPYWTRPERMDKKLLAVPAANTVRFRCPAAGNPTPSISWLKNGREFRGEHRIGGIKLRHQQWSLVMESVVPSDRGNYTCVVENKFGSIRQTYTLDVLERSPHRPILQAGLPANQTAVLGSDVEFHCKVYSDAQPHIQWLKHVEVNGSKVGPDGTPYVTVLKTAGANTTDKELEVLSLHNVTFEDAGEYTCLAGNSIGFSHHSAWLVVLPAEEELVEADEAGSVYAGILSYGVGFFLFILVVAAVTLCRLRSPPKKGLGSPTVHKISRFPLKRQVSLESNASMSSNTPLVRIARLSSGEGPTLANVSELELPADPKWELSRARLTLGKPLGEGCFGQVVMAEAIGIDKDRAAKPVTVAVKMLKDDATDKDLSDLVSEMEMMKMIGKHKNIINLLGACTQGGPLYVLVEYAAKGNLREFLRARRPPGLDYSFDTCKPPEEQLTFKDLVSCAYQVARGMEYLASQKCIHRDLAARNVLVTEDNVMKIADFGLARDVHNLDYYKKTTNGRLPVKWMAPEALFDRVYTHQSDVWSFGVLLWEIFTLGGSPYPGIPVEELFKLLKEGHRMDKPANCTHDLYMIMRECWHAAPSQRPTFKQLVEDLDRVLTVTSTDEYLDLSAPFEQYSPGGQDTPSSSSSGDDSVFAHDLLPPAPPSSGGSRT
Description: In a final reaction volume of 30 μL, FGFR3 (h) (40 ng/ml) was incubated with 50 mM HEPES pH 7.5, 6 mM MnCl2, 1 mM DTT, 0.1 mM Na3VO4, 0.01% Triton-X-100, 500 nM Btn-Flt3 and 25 μM ATP in the presence of compound (1% DMSO final). […] Time-Resolved Fluorescence Resonance Energy Transfer (TR-FRET) signal (ex340 nm. Em 620 nm, em 655 nm) was measured afterwards and results are expressed in RFU (Relative Fluorescence Units).

FGFR4 (h) = FGFR4 (h) (Homo sapiens, UniProt P22455); test: FGFR4 (enzymatic assay), TR-FRET; format: biochemical; conditions: read-out: FGFR 4 pIC50 (converted)
Sequence of FGFR4 (h) (P22455 22-802): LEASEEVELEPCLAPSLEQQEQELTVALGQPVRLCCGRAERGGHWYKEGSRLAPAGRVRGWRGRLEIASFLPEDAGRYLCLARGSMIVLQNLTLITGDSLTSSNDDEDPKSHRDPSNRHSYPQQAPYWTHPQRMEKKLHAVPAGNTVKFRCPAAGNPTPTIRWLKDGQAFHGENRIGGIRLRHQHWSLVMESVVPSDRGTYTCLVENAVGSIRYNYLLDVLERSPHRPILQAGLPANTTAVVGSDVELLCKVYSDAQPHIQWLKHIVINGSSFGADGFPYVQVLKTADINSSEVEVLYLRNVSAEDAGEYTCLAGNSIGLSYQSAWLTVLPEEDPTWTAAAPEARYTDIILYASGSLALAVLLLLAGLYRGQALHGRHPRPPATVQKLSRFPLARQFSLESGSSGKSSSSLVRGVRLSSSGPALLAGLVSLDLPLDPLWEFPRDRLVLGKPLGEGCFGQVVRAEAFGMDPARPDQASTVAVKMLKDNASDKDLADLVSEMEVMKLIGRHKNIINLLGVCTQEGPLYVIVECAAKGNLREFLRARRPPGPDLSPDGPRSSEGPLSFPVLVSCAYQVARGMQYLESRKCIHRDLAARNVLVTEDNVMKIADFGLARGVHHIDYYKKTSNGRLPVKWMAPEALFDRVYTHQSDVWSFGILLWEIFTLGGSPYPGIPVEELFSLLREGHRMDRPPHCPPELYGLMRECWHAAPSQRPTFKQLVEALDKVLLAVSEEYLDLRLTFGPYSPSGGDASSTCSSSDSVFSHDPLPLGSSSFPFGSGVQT
Description: In a final reaction volume of 30 μL, FGFR4 (h) (60 ng/ml) was incubated with 50 mM HEPES pH 7.5, 6 mM MnCl2, 1 mM DTT, 0.1 mM Na3VO4, 0.01% Triton-X-100, 500 nM Btn-Flt3 and 5 μM ATP in the presence of compound (1% DMSO final). […] Time-Resolved Fluorescence Resonance Energy Transfer (TR-FRET) signal (ex340 nm. Em 620 nm, em 655 nm) was measured afterwards and results are expressed in RFU (Relative Fluorescence Units).

KDR (h) (VEGFR2) = KDR (h) (VEGFR2) (Homo sapiens, UniProt P35968); test: KDR (VEGFR2) (enzymatic assay), TR-FRET; format: biochemical
Sequence of KDR (h) (VEGFR2) (P35968 20-1356): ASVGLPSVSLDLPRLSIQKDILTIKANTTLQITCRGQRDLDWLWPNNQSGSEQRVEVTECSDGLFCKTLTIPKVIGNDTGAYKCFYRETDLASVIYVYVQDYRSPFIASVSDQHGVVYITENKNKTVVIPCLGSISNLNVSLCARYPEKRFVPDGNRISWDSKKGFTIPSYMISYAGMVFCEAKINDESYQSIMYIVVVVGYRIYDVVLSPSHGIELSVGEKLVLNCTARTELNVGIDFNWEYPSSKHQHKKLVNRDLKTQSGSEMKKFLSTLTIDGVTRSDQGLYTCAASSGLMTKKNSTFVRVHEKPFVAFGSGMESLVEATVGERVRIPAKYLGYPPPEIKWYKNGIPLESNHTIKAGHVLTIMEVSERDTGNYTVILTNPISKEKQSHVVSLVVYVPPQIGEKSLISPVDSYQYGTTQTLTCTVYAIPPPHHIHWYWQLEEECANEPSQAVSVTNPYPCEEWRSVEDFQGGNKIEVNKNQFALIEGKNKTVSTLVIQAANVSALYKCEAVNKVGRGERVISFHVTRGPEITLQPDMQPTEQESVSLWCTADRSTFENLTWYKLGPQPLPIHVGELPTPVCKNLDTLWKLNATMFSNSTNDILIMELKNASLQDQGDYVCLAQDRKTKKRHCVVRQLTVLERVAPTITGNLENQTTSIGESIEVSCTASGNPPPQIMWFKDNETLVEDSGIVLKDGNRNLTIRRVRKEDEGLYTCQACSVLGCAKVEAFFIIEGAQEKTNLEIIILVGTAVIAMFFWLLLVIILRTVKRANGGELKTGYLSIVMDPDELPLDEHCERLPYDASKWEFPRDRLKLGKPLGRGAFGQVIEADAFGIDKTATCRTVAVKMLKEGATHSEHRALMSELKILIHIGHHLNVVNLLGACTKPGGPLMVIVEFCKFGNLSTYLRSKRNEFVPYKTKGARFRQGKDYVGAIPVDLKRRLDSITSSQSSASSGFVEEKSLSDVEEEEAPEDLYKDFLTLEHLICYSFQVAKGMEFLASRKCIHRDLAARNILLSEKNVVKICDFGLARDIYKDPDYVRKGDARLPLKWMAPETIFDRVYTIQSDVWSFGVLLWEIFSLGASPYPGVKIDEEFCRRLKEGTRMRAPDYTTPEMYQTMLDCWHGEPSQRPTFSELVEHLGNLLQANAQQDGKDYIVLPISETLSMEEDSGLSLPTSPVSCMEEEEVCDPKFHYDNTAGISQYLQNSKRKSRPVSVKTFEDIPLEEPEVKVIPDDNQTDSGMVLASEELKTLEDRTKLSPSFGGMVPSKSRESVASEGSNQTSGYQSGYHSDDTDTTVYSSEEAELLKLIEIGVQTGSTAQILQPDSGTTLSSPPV
Outline: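 Human KDR (150 ng/ml) was reacted with 500 nM Btn-Flt3 and 3 μM ATP in 50 mM HEPES pH 7.5, 6 mM MnCl2, 1 mM DTT, 0.1 mM Na3VO4, 0.01% Triton X-100, 1% DMSO, for 120 min at room temperature. Phosphorylation detected by TR-FRET (Eu-anti-P-Tyr/SA-XL665, 60 min), read in RFU.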

[1] = biological target: Ba/F3-KDR-transfected cells (Homo sapiens, UniProt P35968); test: Ba/F3-KDR (minus IL3) cellular proliferation assay, Alamar Blue; format: cell-based
Sequence of Ba/F3-KDR-transfected cells (P35968 whole entry, change not shown): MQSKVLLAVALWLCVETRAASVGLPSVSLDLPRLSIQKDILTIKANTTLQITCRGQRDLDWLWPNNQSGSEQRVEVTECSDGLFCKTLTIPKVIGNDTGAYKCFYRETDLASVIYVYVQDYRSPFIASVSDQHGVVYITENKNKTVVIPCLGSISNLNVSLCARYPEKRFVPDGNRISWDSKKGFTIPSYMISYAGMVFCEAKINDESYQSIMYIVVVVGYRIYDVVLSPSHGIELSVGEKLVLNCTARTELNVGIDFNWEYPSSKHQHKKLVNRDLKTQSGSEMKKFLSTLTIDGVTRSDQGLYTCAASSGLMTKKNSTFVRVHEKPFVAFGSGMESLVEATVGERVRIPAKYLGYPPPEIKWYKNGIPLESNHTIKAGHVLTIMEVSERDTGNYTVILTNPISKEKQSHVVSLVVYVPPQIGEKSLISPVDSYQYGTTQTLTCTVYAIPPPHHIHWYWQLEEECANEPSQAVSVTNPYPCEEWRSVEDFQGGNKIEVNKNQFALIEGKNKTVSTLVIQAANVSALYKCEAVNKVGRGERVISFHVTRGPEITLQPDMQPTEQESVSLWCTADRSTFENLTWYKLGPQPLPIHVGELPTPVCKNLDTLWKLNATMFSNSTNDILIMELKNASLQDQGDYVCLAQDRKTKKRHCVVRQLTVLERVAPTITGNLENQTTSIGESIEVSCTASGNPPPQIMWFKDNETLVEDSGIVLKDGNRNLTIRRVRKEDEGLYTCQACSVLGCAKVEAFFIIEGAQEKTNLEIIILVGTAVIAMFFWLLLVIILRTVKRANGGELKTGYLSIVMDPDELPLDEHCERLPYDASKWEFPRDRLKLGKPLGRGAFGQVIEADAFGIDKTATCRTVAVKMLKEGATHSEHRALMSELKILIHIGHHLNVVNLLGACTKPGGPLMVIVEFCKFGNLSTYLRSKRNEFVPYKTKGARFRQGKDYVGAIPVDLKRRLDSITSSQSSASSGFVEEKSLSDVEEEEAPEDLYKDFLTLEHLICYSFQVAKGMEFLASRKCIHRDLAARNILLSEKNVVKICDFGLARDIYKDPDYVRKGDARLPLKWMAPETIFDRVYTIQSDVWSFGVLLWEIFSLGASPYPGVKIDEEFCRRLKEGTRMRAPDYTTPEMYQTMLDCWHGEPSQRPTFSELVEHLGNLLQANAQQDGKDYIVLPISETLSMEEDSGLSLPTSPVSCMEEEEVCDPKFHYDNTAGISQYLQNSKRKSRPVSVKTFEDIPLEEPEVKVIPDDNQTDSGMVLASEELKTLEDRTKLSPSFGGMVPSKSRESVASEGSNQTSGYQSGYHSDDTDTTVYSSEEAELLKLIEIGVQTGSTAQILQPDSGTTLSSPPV
Outline: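 Ba/F3-KDR cells in RPMI-1640 with 10% FBS, 20000 (384-well) or 10000 (96-well) per well, given compound for 24 h at 37° C; Alamar Blue then added for 4 h and fluorescence read (ex 540/em 590 nm). Counterscreen run identically with 10 ng/ml murine IL3.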

[2] = tested on: Ba/F3-Flt3-transfected cells in the presence of 10 ng/ml murine IL3; test: Ba/F3-Flt3 (plus IL3) cellular proliferation counterscreen, Alamar Blue; format: cell-based; conditions: for IC50: Mus musculus, read-out: BAF3-FLT3 (PLUS IL3) 384 well pIC50 (converted)

Sequence of FGFR2 (h) (P21802 22-821): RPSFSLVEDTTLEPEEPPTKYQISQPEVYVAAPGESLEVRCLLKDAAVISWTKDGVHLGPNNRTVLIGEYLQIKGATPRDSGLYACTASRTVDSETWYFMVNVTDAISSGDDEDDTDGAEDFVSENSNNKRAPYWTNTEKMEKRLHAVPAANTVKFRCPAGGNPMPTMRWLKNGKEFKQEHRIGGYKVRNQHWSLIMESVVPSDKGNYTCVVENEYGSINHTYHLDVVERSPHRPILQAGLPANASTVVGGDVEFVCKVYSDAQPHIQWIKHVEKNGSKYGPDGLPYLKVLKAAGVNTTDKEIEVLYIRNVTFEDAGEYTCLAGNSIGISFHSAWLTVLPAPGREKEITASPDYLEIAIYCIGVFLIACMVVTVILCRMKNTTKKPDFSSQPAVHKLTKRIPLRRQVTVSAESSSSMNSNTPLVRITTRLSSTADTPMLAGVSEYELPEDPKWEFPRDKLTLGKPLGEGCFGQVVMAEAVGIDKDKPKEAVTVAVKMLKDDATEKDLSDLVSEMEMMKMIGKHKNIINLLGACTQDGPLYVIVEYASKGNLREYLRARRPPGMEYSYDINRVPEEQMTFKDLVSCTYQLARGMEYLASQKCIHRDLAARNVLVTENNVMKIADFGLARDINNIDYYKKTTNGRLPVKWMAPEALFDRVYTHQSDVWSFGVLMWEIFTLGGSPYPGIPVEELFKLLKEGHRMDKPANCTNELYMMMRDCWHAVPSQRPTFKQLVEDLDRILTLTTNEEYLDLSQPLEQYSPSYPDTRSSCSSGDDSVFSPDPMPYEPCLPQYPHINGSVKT

Row | SMILES | IC50 (FGFR2 (h)) | IC50 (FGFR3 (h)) | IC50 (FGFR4 (h)) | IC50 (KDR (h) (VEGFR2)) | BAF3-KDR (MIN IL3) 384 well pIC50 ([1]; minus IL3) | BAF3-KDR (MIN IL3) 96 well pIC50 ([1]; minus IL3) | IC50 ([2]; plus 10 ng/ml murine IL3) | BAF3-FLT3 (PLUS IL3) 384 well pIC50 ([2]; plus 10 ng/ml murine IL3) | BAF3-KDR (MIN IL3) 384 well pIC50 ([1]; minus IL3, 384 well) | IC50 ([2]; plus IL3, 384 well)
1 | COc1cc(OC)cc(N(CC2CC2)c2ccc3ncc(C(=O)NCc4ccc(F)cc4)nc3c2)c1 [Compound 101] | > 1 µM | > 1 µM | > 1 µM | > 1 µM | <5 |  |  |  |  | 
2 | COc1cc(OC)cc(N(CC2CC2)c2ccc3ncc(-c4cccn4C)nc3c2)c1 [Compound 103] | > 1 µM | ~1 µM | > 1 µM | > 1 µM | <5 |  |  |  |  | 
3 | COc1cc(OC)cc(N(CC2CC2)c2ccc3ncc(Nc4nncs4)nc3c2)c1 [Compound 102] | > 1 µM | > 1 µM | > 1 µM | > 1 µM | <5 |  |  |  |  | 
4 | CNCCN(c1cc(OC)cc(OC)c1)c1ccc2ncc(-c3ccc(NC(=O)OC(C)(C)C)nc3)nc2c1 [Compound 81] | 0.0055 µM | 0.01 µM | 0.0631 µM | 0.209 µM | 5.62 |  |  |  |  | 
5 | COc1cc(OC)cc(N(CCO)c2ccc3ncc(-c4ccc(N)nc4)nc3c2)c1 [Compound 106] | 0.00582 µM | 0.00302 µM | 0.0195 µM | 0.178 µM | 5.335 |  |  |  |  | 
6 | COc1cc(OC)cc(N(CC2CC2)c2ccc3ncc(-c4cn(C)cn4)nc3c2)c1 [Compound 21] |  |  |  | 0.708 µM | <5 | <5 | > 10 µM |  |  | 
7 | COc1cc(OC)cc(N(CC2CC2)c2ccc3ncc(-c4cc[nH]c4)nc3c2)c1 [Compound 36] |  |  |  | 0.676 µM | <5 | <5 | > 10 µM |  |  | 
8 | COc1cc(OC)cc(N(CC2CC2)c2ccc3ncc(Nc4cnn(C)c4)nc3c2)c1 [Compound 61] |  |  |  | > 1 µM | <5 |  | > 10 µM |  |  | 
9 | COc1cc(OC)cc(N(CC2CC2)c2ccc3ncc(C(=O)NCCN4CCOCC4)nc3c2)c1 [Compound 96] | ~0.912 µM | 0.55 µM | > 1 µM | > 1 µM | <5 |  |  |  |  | 
10 | CNC(=O)c1cc(-c2cnc3ccc(N(CCNCC(F)(F)F)c4cc(OC)cc(OC)c4)cc3n2)ccn1 [Compound 113] | 0.0457 µM | 0.0339 µM | 0.17 µM | > 1 µM | <5 |  |  |  |  | 
11 | COc1cc(OC)cc(N(CCNC(C)C)c2ccc3ncc(-c4ccccc4)nc3c2)c1 [Compound 121] | 0.00372 µM | 0.00589 µM | 0.00794 µM | 0.049 µM | ~5.3 |  |  |  |  | 
12 | COc1cc(OC)cc(N(CC(O)C(F)(F)F)c2ccc3ncc(-c4cccnc4)nc3c2)c1 (single isomer, unassigned) [Compound 54] |  |  |  | 0.794 µM | <5 |  |  | <5 |  | 
13 | CNC(=O)c1cc(-c2cnc3ccc(N(CCN4CCCC4CO)c4cc(OC)cc(OC)c4)cc3n2)ccn1 (centres unmarked) [Compound 109] | 0.00631 µM | 0.0117 µM | 0.251 µM | 0.2 µM |  |  |  |  |  | 
14 | COc1cc(OC)cc(N(CC2CC2)c2ccc3ncc(-c4ccn(C)c4)nc3c2)c1 [Compound 73] |  |  |  | 0.295 µM | 5.07 | <5 | > 10 µM |  |  | 
15 | COc1cc(OC)cc(N(CC2CC2)c2ccc3ncc(-c4cnn(C)n4)nc3c2)c1 [Compound 70] |  |  |  | > 1 µM | <5 | <5 | > 10 µM |  |  | 
16 | COc1cc(OC)cc(N(CC2CC2)c2ccc3ncc(-c4ccc5c(ccn5C)c4)nc3c2)c1 [Compound 20] |  |  |  | > 10 µM |  |  |  |  | <5 | > 10 µM
17 | COc1cc(OC)cc(N(CC2CC2)c2ccc3ncc(-c4nnn(C)n4)nc3c2)c1 [Compound 82] | 0.229 µM | 0.148 µM | > 1 µM | > 1 µM | <5 | <5 |  |  |  | 
18 | COc1cc(OC)cc(N(CC2CC2)c2ccc3ncc(-n4cnc(CO)c4)nc3c2)c1 [Compound 105] | 0.0407 µM | 0.0138 µM | 0.132 µM | 0.741 µM | <5 |  |  |  |  | 
19 | COc1cc(OC)cc(N(CC2CC2)c2ccc3ncc(-c4ccnn4C)nc3c2)c1 [Compound 18] |  |  |  | > 10 µM | <5 |  | > 10 µM |  |  | 
20 | COc1cc(OC)cc(N(CC(O)C(F)(F)F)c2ccc3ncc(-c4cccnc4)nc3c2)c1 (single isomer, unassigned) [Compound 53] |  |  |  | 0.363 µM | <5 |  | > 10 µM |  |  | 
21 | COc1cc(OC)cc(N(CC2CC2)c2ccc3ncc(Nc4nccs4)nc3c2)c1 [Compound 98] | 0.676 µM | 0.191 µM | > 1 µM | > 1 µM | <5 |  |  |  |  | 
22 | COc1cc(OC)cc(N(CC(OC(C)=O)C(F)(F)F)c2ccc3ncc(-c4cccnc4)nc3c2)c1 (single isomer, unassigned) [Compound 75] |  |  |  |  | <5 |  |  | <5 |  | 
23 | COc1cc(OC)cc(N(CCCO)c2ccc3ncc(-c4ccnc(C(=O)NCCCCN)c4)nc3c2)c1 [Compound 126] | 0.0331 µM | 0.0178 µM | 0.117 µM | 0.661 µM | <5 |  |  |  |  | 
24 | COc1cc(OC)cc(N(CCCO)c2ccc3ncc(-c4ccc(C)nc4)nc3c2)c1 [Compound 115] | 0.0135 µM | 0.00479 µM | 0.038 µM | 0.309 µM | 5.06 |  |  |  |  | 
25 | COc1cc(OC)cc(N(CCCO)c2ccc3ncc(-c4ccc(N(C)C(=O)OC(C)(C)C)nc4)nc3c2)c1 [Compound 125] | 0.309 µM | 0.0813 µM | 0.174 µM | > 1 µM | <5 |  |  |  |  | 
26 | COc1cc(OC)cc(N(CC2CC2)c2ccc3ncc(-c4nccs4)nc3c2)c1 [Compound 97] | 2 µM | 0.676 µM | 1.05 µM | > 10 µM | <5 |  |  |  |  | 
